Columns and labels:
[1] = tested on: Menkes disease subjects; assay: Long term follow up of Menkes disease patients treated with copper histidinate (survival); assay type: in vivo, human; conditions: early treatment vs untreated historical controls
Experimental: During the study patients were administered does of copper histidinate as follows: 1450 μg subcutaneous BID in infants up to 12 months of age, and 1450 μg subcutaneous QD for infants and children older than 12 months.
This study was designed as a long term follow up on patients previously identified and/or enrolled in previous studies for the treatment of Menkes disease with copper histidinate and untreated patients to determine survival, neurological development, quality of life status and adverse events. This study followed the patients from the previous examples for long term follow up.
Patients previously enrolled in clinical trials for the treatment of Menkes disease with copper histidinate were assessed for survival status, neurological development status and quality of life. No drug was be administered during this study.

[2] = tested on: classic Menkes disease patients; assay: Subcutaneous copper histidinate treatment of Menkes patients (serum copper, renal safety monitoring); assay type: in vivo, human; conditions: 1450 μg SC BID younger than 12 months, QD older than 12 months
Text: The purpose of this study was to allow currently enrolled participants to complete a three-year course of subcutaneous copper histidinate treatment under a previous protocol. It was hypothesized that subcutaneous injections of this drug will raise serum copper levels and ceruloplasmin levels in enrolled participants, improve neurodevelopmental and neurological outcomes, and reduce mortality compared to untreated affected subjects. The broad overall hypothesis of this treatment study is that subcutaneous copper histidinate injections will normalize circulating copper levels and provide health benefits to individuals with copper deficiency due to genetic abnormalities such as classic Menkes disease or which is unexplained. The trial represents an open-label design in which all enrolled subjects receive subcutaneous injections of copper histidinate. Immediate potential benefits of Copper Histidinate treatment in classic Menkes disease include protection against seizure activity and accrual of neurodevelopmental skills in an age-appropriate fashion. Long-term potential benefits include enhanced lifespan and quality of life, as noted in other subjects with classic Menkes disease treated with Copper Histidinate. […]

[3] = tested on: classic Menkes disease patients; conditions: cited from earlier work

## N[C@@H](Cc1cnc[nH]1)C(=O)[O-].N[C@@H](Cc1cnc[nH]1)C(=O)[O-].[Cu+2] [copper histidinate, (2S)-2-amino-3-(1H-imidazol-5-yl) propanoic acid, Copper]
[1]
  reduction in the risk of death: ~80%
[1]; p<0.00001
  hazard ratio (risk of death): 0.21
[2]
  serum copper levels under the standard dosing regimen: maintains serum copper levels in the normal range
[3]
  renal tubular injury caused by copper histidinate: reversible
